Results reported in patent US20120244567A1, “HUMAN EMBRYONIC STEM CELLS FOR HIGH THROUGHOUT DRUG SCREENING” (BUCK INSTITUTE FOR RESEARCH ON AGING, priority 2009, published 2012).
Counter-ions that a name gives are not always drawn. Like-named read-outs stand apart in the source and are kept apart here.

System: dopaminergic neurons
Experimental: RNAs isolated from NSCs and neurons with and without drug treatments were hybridized to Illumina HumanRef-8 BeadChip (Illumina, Inc., San Diego, Calif., performed by Microarray core facility at the Burnham Institute for Medical Research). The Illumina array data were normalized by the quantile method, and then transformed log 2 ratio values for a zero mean for expression values of each gene across all samples. The statistical and bioinformatics analyses were conducted by using R and the bioconductor package (www.bioconductor.org). The gene set enrichment analysis was conducted using the GSEA software (www.broad.mit.edu/gsea).

[1] = Amiloride sensitive Na channels, 4 hours of exposure
[2] = Amine transporters, 4 hours of exposure
[3] = Ca activated K channels, 4 hours of exposure
[4] = Calcium channels, 4 hours of exposure
[5] = Cl channels, 4 hours of exposure
[6] = Delayed rectifier K channels, 4 hours of exposure
[7] = H ion transporters, 4 hours of exposure
[8] = Rectifier K channels, 4 hours of exposure
[9] = Voltage gated Na channels, 4 hours of exposure

## CCCCc1oc2ccccc2c1C(=O)c1cc(I)c(OCCN(CC)CC)c(I)c1 [Amiodarone Hydrochloride]
[1]
  ACCN1 gene expression, Treated DA Neuron: 387.4
  ACCN2 gene expression, Treated DA Neuron: 862.7
  ACCN3 gene expression, Treated DA Neuron: 35.7
[2]
  SLC1A2 gene expression, Treated DA Neuron: 809.7
  SLC1A3 gene expression, Treated DA Neuron: 2926
  SLC6A3 gene expression, Treated DA Neuron: 23.4
  SLC6A9 gene expression, Treated DA Neuron: 36570.5
  SLC6A12 gene expression, Treated DA Neuron: 10.8
Amine transporters, first line for this gene, 4 hours of exposure
  ATP1A1 gene expression, Treated DA Neuron: 426.9
Amine transporters, second line for this gene, 4 hours of exposure
  ATP1A1 gene expression, Treated DA Neuron: 471
[3]
  KCNMB1 gene expression, Treated DA Neuron: 44.8
  KCNN1 gene expression, Treated DA Neuron: 48.4
  KCNN2 gene expression, Treated DA Neuron: 55.6
  KCNN3 gene expression, Treated DA Neuron: 181.7
[4]
  CACNA1A gene expression, Treated DA Neuron: 64.4
  CACNA1C gene expression, Treated DA Neuron: 146.9
  CACNB2 gene expression, Treated DA Neuron: 155.2
  CACNG2 gene expression, Treated DA Neuron: 123.8
[5]
  CLCN2 gene expression, Treated DA Neuron: 24
  CLCN3 gene expression, Treated DA Neuron: 541.2
  CLCN6 gene expression, Treated DA Neuron: 998.5
  CLCN7 gene expression, Treated DA Neuron: 1261
  CLIC1 gene expression, Treated DA Neuron: 22.9
[6]
  KCNA5 gene expression, Treated DA Neuron: 99.9
  KCNB1 gene expression, Treated DA Neuron: 145.4
  KCNB2 gene expression, Treated DA Neuron: 94.5
[7]
  ATP5B gene expression, Treated DA Neuron: 5217.1
  ATP6V0A2 gene expression, Treated DA Neuron: 131.3
  ATP6V0D1 gene expression, Treated DA Neuron: 2920.7
  ATP6V1A gene expression, Treated DA Neuron: 2621.5
  ATP6V1B2 gene expression, Treated DA Neuron: 724.8
  SLC2A1 gene expression, Treated DA Neuron: 87.1
  SLC2A11 gene expression, Treated DA Neuron: .9
  SLC35B1 gene expression, Treated DA Neuron: 1450.4
[8]
  KCNC4 gene expression, Treated DA Neuron: 58.7
  KCND2 gene expression, Treated DA Neuron: 269.9
  KCNF1 gene expression, Treated DA Neuron: 479.7
  KCNG1 gene expression, Treated DA Neuron: 351
  KCNJ4 gene expression, Treated DA Neuron: 66.1
  KCNJ6 gene expression, Treated DA Neuron: 297.7
  KCNJ11 gene expression, Treated DA Neuron: 44.4
  KCNQ3 gene expression, Treated DA Neuron: 23.2
Rectifier K channels, first line for this gene, 4 hours of exposure
  KCNQ2 gene expression, Treated DA Neuron: 1753.5
Rectifier K channels, second line for this gene, 4 hours of exposure
  KCNQ2 gene expression, Treated DA Neuron: 434.4
[9]
  SCN1A gene expression, Treated DA Neuron: 115.6
  SCN3A gene expression, Treated DA Neuron: 60.4
  SCN9A gene expression, Treated DA Neuron: 245.7
Four hours after exposure
  AFF1 expression, Treated Neuron: 1
  ARID3A expression, Treated Neuron: 201
  ASCL2 expression, Treated Neuron: 1
  DDIT3 expression, Treated Neuron: 170
  DLX2 expression, Treated Neuron: 1
  E2F2 expression, Treated Neuron: 63.2
  E2F7 expression, Treated Neuron: 43
  E2F8 expression, Treated Neuron: 1
  EGR1 expression, Treated Neuron: 109
  EGR2 expression, Treated Neuron: 1
  ELF4 expression, Treated Neuron: 1
  ELF5 expression, Treated Neuron: 1
  ELK3 expression, Treated Neuron: 1
  ELK4 expression, Treated Neuron: 1
  EN1 expression, Treated Neuron: 1
  ERG expression, Treated Neuron: 1
  ETS1 expression, Treated Neuron: 1
  ETV1 expression, Treated Neuron: 1
  ETV4 expression, Treated Neuron: 1
  FLI1 expression, Treated Neuron: 11.3
  FOS expression, Treated Neuron: 1980
  FOSB expression, Treated Neuron: 346
  FOXA2 expression, Treated Neuron: 1
  FOXC1 expression, Treated Neuron: 32.6
  FOXD1 expression, Treated Neuron: 1
  FOXF2 expression, Treated Neuron: 1
  FOXL2 expression, Treated Neuron: 1
  FOXM1 expression, Treated Neuron: 27.7
  GATA2 expression, Treated Neuron: 1
  GLI2 expression, Treated Neuron: 5.2
  HCLS1 expression, Treated Neuron: 1
  HEY2 expression, Treated Neuron: 1
  HIRA expression, Treated Neuron: 24.2
  HMGB2 expression, Treated Neuron: 163
  HOXA13 expression, Treated Neuron: 1
  HOXB1 expression, Treated Neuron: 1
  HOXB2 expression, Treated Neuron: 24
  HOXB3 expression, Treated Neuron: 1
  HOXB4 expression, Treated Neuron: 1
  HOXB5 expression, Treated Neuron: 1
  HOXD3 expression, Treated Neuron: 1
  L3MBTL expression, Treated Neuron: 97.7
  LHX8 expression, Treated Neuron: 1
  MEF2C expression, Treated Neuron: 49.8
  MEOX1 expression, Treated Neuron: 1
  MSX2 expression, Treated Neuron: 1
  MYEF2 expression, Treated Neuron: 25.3
  NFATC3 expression, Treated Neuron: 1
  NFATC4 expression, Treated Neuron: 1
  NFKB2 expression, Treated Neuron: 5.3
  NR1D2 expression, Treated Neuron: 1
  NR2C2 expression, Treated Neuron: 5.7
  NR4A2 expression, Treated Neuron: 212
  NRK expression, Treated Neuron: 1
  PAX8 expression, Treated Neuron: 1
  PBX2 expression, Treated Neuron: 1
  PRDM1 expression, Treated Neuron: 1
  PRRX2 expression, Treated Neuron: 1
  RELB expression, Treated Neuron: 31.9
  RUNX1 expression, Treated Neuron: 1
  SALL1 expression, Treated Neuron: 1
  SIX4 expression, Treated Neuron: 5.7
  STAT6 expression, Treated Neuron: 1
  TAF5L expression, Treated Neuron: 17.5
  TAF13 expression, Treated Neuron: 1
  TBX2 expression, Treated Neuron: 1
  TEAD4 expression, Treated Neuron: 1
  TEF expression, Treated Neuron: 23.5
  TGIF1 expression, Treated Neuron: 1
  TP53 expression, Treated Neuron: 23.7
  ZNF85 expression, Treated Neuron: 5.6
  ZNF197 expression, Treated Neuron: 5.1
  ZNF274 expression, Treated Neuron: 1
  ZNF367 expression, Treated Neuron: 1
  ZSCAN29 expression, Treated Neuron: 1
